Values belong to the compound of their own block, whether it stands above or below them.
Assays:
human orexin-1 receptor = human orexin-1 receptor (Homo sapiens (Human), UniProt O43613); experiment: In vitro assay: intracellular calcium measurements (FLIPR), antagonistic activity; type: cell-based; conditions: CHO cells expressing human orexin-1 receptor, orexin-A agonist, geometric mean, read-out: IC50 Ox1
In short: (§1)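 Dye-loaded CHO cells expressing either human orexin receptor are exposed to test antagonist for 120 min, then stimulated with orexin-A at 3 nM.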

human orexin-2 receptor = human orexin-2 receptor (Homo sapiens (Human), UniProt O43614); experiment: as above; type: cell-based; conditions: CHO cells expressing human orexin-2 receptor, orexin-A agonist, geometric mean, read-out: IC50 Ox2
human orexin-2 receptor, sequence (O43614 whole entry): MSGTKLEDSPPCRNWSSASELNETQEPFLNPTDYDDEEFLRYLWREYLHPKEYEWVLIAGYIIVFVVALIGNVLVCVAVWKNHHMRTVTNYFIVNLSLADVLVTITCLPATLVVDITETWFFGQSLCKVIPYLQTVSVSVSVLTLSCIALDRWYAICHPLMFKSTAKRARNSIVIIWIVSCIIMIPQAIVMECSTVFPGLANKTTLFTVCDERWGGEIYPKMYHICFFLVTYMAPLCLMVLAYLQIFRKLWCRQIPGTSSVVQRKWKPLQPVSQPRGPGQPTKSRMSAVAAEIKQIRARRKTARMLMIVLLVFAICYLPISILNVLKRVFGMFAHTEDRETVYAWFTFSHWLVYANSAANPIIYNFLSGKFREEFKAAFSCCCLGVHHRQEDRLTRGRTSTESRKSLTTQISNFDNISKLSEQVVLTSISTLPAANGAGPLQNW
In short: as §1

human orexin-1 receptor, sequence (O43613 whole entry): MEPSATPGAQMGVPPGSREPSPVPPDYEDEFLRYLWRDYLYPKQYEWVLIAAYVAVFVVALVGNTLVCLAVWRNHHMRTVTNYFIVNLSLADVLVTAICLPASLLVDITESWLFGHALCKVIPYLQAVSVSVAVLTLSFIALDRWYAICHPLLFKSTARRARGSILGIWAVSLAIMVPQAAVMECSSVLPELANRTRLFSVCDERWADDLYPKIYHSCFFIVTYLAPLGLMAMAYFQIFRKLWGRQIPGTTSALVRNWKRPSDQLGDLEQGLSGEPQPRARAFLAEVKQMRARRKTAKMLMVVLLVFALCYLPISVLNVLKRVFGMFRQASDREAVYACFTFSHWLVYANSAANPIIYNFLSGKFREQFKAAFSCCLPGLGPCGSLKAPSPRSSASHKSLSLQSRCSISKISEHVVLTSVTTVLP

- IC50 (human orexin-1 receptor): 6 nM
- IC50 (human orexin-2 receptor): 11 nM
Compound: Cc1ccc(-c2cccc(F)c2)c(C(=O)N2CCC[C@@]2(C)c2nc3cc(C)c(C)cc3[nH]2)c1 [Ex. 5.97]

- IC50 (human orexin-1 receptor): 2 nM
- IC50 (human orexin-2 receptor): 21 nM
Compound: C[C@@]1(c2nc3cc(C(F)(F)F)c(Cl)cc3[nH]2)CCCN1C(=O)c1cc(Cl)ccc1-n1nccn1 [Ex. 5.139]

- IC50 (human orexin-1 receptor): 17 nM
- IC50 (human orexin-2 receptor): 101 nM
Compound: Cc1ccc(-c2sc(C)nc2C(=O)N2CCC[C@@]2(C)c2nc3c(F)c(F)ccc3[nH]2)cc1 [Ex. 5.209]

- IC50 (human orexin-1 receptor): 7 nM
- IC50 (human orexin-2 receptor): 9 nM
Compound: Cc1ccc(-c2ccccc2)c(C(=O)N2CCC[C@@]2(C)c2nc3c(C)c(C)c(Br)cc3[nH]2)c1 [Ex. 5.270]

- IC50 (human orexin-1 receptor): 2 nM
- IC50 (human orexin-2 receptor): 2 nM
Compound: C=C1CC(c2nc3c(C)c(Cl)ccc3[nH]2)N(C(=O)c2nc(C3CC3)sc2-c2cccc(C)c2)C1 (stereo not shown) [Ex. 6.89]

- IC50 (human orexin-1 receptor): 206 nM
- IC50 (human orexin-2 receptor): 81 nM
Compound: C=C1C[C@@H](c2nc3cc(OC)ccc3[nH]2)N(C(=O)c2nc(C3CC3)sc2-c2ccccc2)C1 [Ex. 6.10]

- IC50 (human orexin-1 receptor): 57 nM
- IC50 (human orexin-2 receptor): 164 nM
Compound: Cc1ccc(-n2nccn2)c(C(=O)N2CCC[C@@]2(C)c2nc3cc(SC(F)(F)F)ccc3[nH]2)c1 [Ex. 5.30]

- IC50 (human orexin-1 receptor): 148 nM
- IC50 (human orexin-2 receptor): 25 nM
Compound: C=C1C[C@@H](c2nc3cc(C)c(C)cc3[nH]2)N(C(=O)c2cc(C)ccc2-n2cccn2)C1 [Ex. 6.201]

- IC50 (human orexin-1 receptor): 58 nM
- IC50 (human orexin-2 receptor): 10 nM
Compound: C=C1C[C@@H](c2nc3cc(C)c(C)cc3[nH]2)N(C(=O)c2cc(OC)c(OC)cc2-n2nccn2)C1 [Ex. 6.200]

- IC50 (human orexin-1 receptor): 8 nM
- IC50 (human orexin-2 receptor): 30 nM
Compound: CCn1c([C@]2(C)CCCN2C(=O)c2cc(C)ccc2-c2ccc(C)cc2)nc2cc(C)c(C)cc21 [Ex. 7.38]

- IC50 (human orexin-1 receptor): 7 nM
- IC50 (human orexin-2 receptor): 12 nM
Compound: Cc1nc(C(=O)N2CCC[C@@]2(C)c2nc3c(C)c(C)c(Br)cc3[nH]2)c(-c2ccc(C)c(C)c2)s1 [Ex. 5.273]

- IC50 (human orexin-1 receptor): 19 nM
- IC50 (human orexin-2 receptor): 16 nM
Compound: COc1cc2nc([C@]3(C)CCCN3C(=O)c3cc(C)c(C)cc3-n3nccn3)[nH]c2cc1OC [Ex. 5.72]

- IC50 (human orexin-1 receptor): 23 nM
- IC50 (human orexin-2 receptor): 88 nM
Compound: Cc1ccc(-c2ccc(C)cc2C(=O)N2CCC[C@@]2(C)c2nc3cc(C(F)(F)F)ccc3[nH]2)cc1 [Ex. 5.192]

- IC50 (human orexin-1 receptor): 1 nM
- IC50 (human orexin-2 receptor): 4 nM
Compound: Cc1c(Cl)ccc2c1nc([C@]1(C)CCCN1C(=O)c1cc(Cl)ccc1-n1nccn1)n2C [Ex. 7.22]

- IC50 (human orexin-1 receptor): 234 nM
- IC50 (human orexin-2 receptor): 68 nM
Compound: C=C1CC(c2nc3cc(C(C)(C)C)ccc3[nH]2)N(C(=O)c2nc(C3CC3)sc2-c2cccc(C)c2)C1 (stereo not shown) [Ex. 6.96]

- IC50 (human orexin-1 receptor): 7 nM
- IC50 (human orexin-2 receptor): 82 nM
Compound: Cc1ccc(-n2cccn2)c(C(=O)N2CCC[C@@]2(C)c2nc3cc(C(F)(F)F)c(Cl)cc3[nH]2)n1 [Ex. 5.143]

- IC50 (human orexin-1 receptor): 13 nM
- IC50 (human orexin-2 receptor): 6 nM
Compound: C=C1C[C@@H](c2nc3cc(Cl)c(C(F)(F)F)cc3[nH]2)N(C(=O)c2cc(Cl)ccc2-n2nccn2)C1 [Ex. 6.177]

- IC50 (human orexin-1 receptor): 38 nM
- IC50 (human orexin-2 receptor): 1340 nM
Compound: Cc1ccc(-c2nc(C(=O)N3CCC[C@@]3(C)c3nc4cc(Cl)c(C(F)(F)F)cc4[nH]3)c(-c3ccc(F)cc3)s2)cc1 [Ex. 5.288]

- IC50 (human orexin-1 receptor): 13 nM
- IC50 (human orexin-2 receptor): 14 nM
Compound: COc1cccc(-c2ccc(C)cc2C(=O)N2CCC[C@@]2(C)c2nc3c(C)c(C)ccc3[nH]2)c1 [Ex. 5.110]

- IC50 (human orexin-1 receptor): 4 nM
- IC50 (human orexin-2 receptor): 2 nM
Compound: C=C1CC(c2nc3c(C)c(C)ccc3[nH]2)N(C(=O)c2nc(C3CC3)sc2-c2cccc(C)c2)C1 (racemic) [Ex. 6.92]

- IC50 (human orexin-1 receptor): 34 nM
- IC50 (human orexin-2 receptor): 12 nM
Compound: C=C1CN(C(=O)c2cc(C)ccc2-n2nccn2)C(C)(c2nc3cc(OC)ccc3[nH]2)C1 (stereo not shown) [Ex. 6.156]

- IC50 (human orexin-1 receptor): 16 nM
- IC50 (human orexin-2 receptor): 62 nM
Compound: Cc1cccc(-c2ccc(C)cc2C(=O)N2CCC[C@@]2(C)c2nc3cc(C(F)(F)F)ccc3[nH]2)c1 [Ex. 5.189]

- IC50 (human orexin-1 receptor): 24 nM
- IC50 (human orexin-2 receptor): 42 nM
Compound: Cc1ccc(-c2ccccc2F)c(C(=O)N2CCC[C@@]2(C)c2nc3cc(C)c(C)cc3n2C)c1 [Ex. 7.43]

- IC50 (human orexin-1 receptor): 2 nM
- IC50 (human orexin-2 receptor): 4 nM
Compound: Cc1ccc(-c2ncccn2)c(C(=O)N2CCC[C@@]2(C)c2nc3c(C)c(Cl)ccc3[nH]2)c1 [Ex. 5.214]

- IC50 (human orexin-1 receptor): 42 nM
- IC50 (human orexin-2 receptor): 261 nM
Compound: C[C@@]1(c2nc3cc(C(F)(F)F)ccc3[nH]2)CCCN1C(=O)c1cc(C#N)ccc1-n1nccn1 [Ex. 5.180]

- IC50 (human orexin-1 receptor): 592 nM
- IC50 (human orexin-2 receptor): 414 nM
Compound: COc1cc2nc([C@]3(C)CCCN3C(=O)c3nc(C)sc3-c3ccc(C(F)(F)F)cc3)[nH]c2cc1OC [Ex. 5.74]

- IC50 (human orexin-1 receptor): 38 nM
- IC50 (human orexin-2 receptor): 54 nM
Compound: Cc1ccc(-c2ccc3c(c2)OCO3)c(C(=O)N2CCC[C@@]2(C)c2nc3cc(C(F)(F)F)c(Cl)cc3[nH]2)c1 [Ex. 5.156]

- IC50 (human orexin-1 receptor): 5 nM
- IC50 (human orexin-2 receptor): 7 nM
Compound: Cc1cccc(-c2ccc(C)cc2C(=O)N2CCC[C@@]2(C)c2nc3c(C)c(C)ccc3[nH]2)c1 [Ex. 5.111]

- IC50 (human orexin-1 receptor): 6 nM
- IC50 (human orexin-2 receptor): 31 nM
Compound: Cc1ccc(-n2nccn2)c(C(=O)N2CCC[C@@]2(C)c2nc3c(Cl)cc(C(F)(F)F)cc3[nH]2)c1 [Ex. 5.14]

The next lines start with the compound.

Compound: Cc1nc(C(=O)N2CC[C@H](C)[C@H]2c2nc3cccc(Cl)c3[nH]2)c(-c2cccc(Cl)c2)s1 [Ex. 4.22]
- IC50 (human orexin-1 receptor): 6 nM
- IC50 (human orexin-2 receptor): 1080 nM

Compound: CSc1ccc2nc([C@@H]3CCCN3C(=O)c3cnc(C)nc3-c3ccc(Cl)c(Cl)c3)[nH]c2c1 [Ex. 1.49]
- IC50 (human orexin-1 receptor): 32 nM
- IC50 (human orexin-2 receptor): 42 nM

Compound: Cc1ccc(-c2ncccn2)c(C(=O)N2CC[C@H](C)[C@H]2c2nc3cc(Cl)cc(C)c3[nH]2)c1 [Ex. 4.182]
- IC50 (human orexin-1 receptor): 7 nM
- IC50 (human orexin-2 receptor): 694 nM

Compound: Cc1cc(C(=O)N2CCC[C@@]2(C)c2nc3c(C)c(Cl)ccc3[nH]2)c(-n2nccn2)cn1 [Ex. 5.263]
- IC50 (human orexin-1 receptor): 56 nM
- IC50 (human orexin-2 receptor): 304 nM

Compound: Cc1cc2[nH]c([C@@H]3[C@@H](C)CCN3C(=O)c3c(F)cccc3-c3ccccc3)nc2cc1Cl [Ex. 4.112]
- IC50 (human orexin-1 receptor): 3 nM
- IC50 (human orexin-2 receptor): 1060 nM

Compound: Cc1ccc(C(=O)N2CC[C@H](C)[C@H]2c2nc3c(C)cc(Cl)cc3[nH]2)c(-n2nccn2)c1 [Ex. 4.93]
- IC50 (human orexin-1 receptor): 4 nM
- IC50 (human orexin-2 receptor): 74 nM

Compound: COc1cccc(-c2sc(C)nc2C(=O)N2CC[C@H](C)[C@H]2c2nc3c(Cl)cccc3[nH]2)c1 [Ex. 4.121]
- IC50 (human orexin-1 receptor): 6 nM
- IC50 (human orexin-2 receptor): 475 nM

Compound: Cc1nc(C(=O)N2CCCC2c2nc3c(Cl)cc(C(F)(F)F)cc3[nH]2)c(-c2cccc(Cl)c2)s1 (stereo not shown) [Ex. 1.100]
- IC50 (human orexin-1 receptor): 27 nM
- IC50 (human orexin-2 receptor): 104 nM

Compound: CO[C@H]1CN(C(=O)c2cc(C)ccc2-n2nccn2)C(C)(c2nc3c(C)c(Cl)ccc3[nH]2)C1 (stereo partly shown) [Ex. 3.25]
- IC50 (human orexin-1 receptor): 5 nM
- IC50 (human orexin-2 receptor): 7 nM

Compound: Cc1ccc(-c2ccccn2)c(C(=O)N2CC[C@H](C)[C@H]2c2nc3c(C)c(Cl)ccc3[nH]2)c1 [Ex. 4.161]
- IC50 (human orexin-1 receptor): 2 nM
- IC50 (human orexin-2 receptor): 191 nM

Compound: COc1cc(C(=O)N2CCC[C@H]2c2nc3ccc(SC)cc3[nH]2)c(-n2nccn2)cc1OC [Ex. 1.155]
- IC50 (human orexin-1 receptor): 36 nM
- IC50 (human orexin-2 receptor): 16 nM

Compound: COc1cccc(C#Cc2ccccc2C(=O)N2CC[C@H](C)[C@H]2c2nc3cc(Cl)c(C)cc3[nH]2)c1 [Ex. 4.135]
- IC50 (human orexin-1 receptor): 4 nM
- IC50 (human orexin-2 receptor): 203 nM

Compound: CO[C@@H]1C[C@@H](c2nc3ccc(Cl)c(C)c3[nH]2)N(C(=O)c2nc(C)sc2-c2ccc(C)cc2)C1 [Ex. 3.36]
- IC50 (human orexin-1 receptor): 5 nM
- IC50 (human orexin-2 receptor): 9 nM

Compound: Cc1nc(C(=O)N2CC[C@H](C)[C@H]2c2nc3cc(Cl)c(C)cc3[nH]2)c(-c2cc(F)cc(F)c2)s1 [Ex. 4.80]
- IC50 (human orexin-1 receptor): 3 nM
- IC50 (human orexin-2 receptor): 2020 nM

Compound: Cc1ccc(-n2nccn2)c(C(=O)N2CCC[C@H]2c2nc3cc(Cl)ccc3[nH]2)c1 [Ex. 1.3]
- IC50 (human orexin-1 receptor): 265 nM
- IC50 (human orexin-2 receptor): 51 nM

Source: patent US9732075B2, “Benzimidazole-proline derivatives” (IDORSIA PHARMACEUTICALS LTD, priority 2012, dated 2017)
